Laboratory results taken from PubChem BioAssay AID328 (DTP/NCI, 2004).
Where “and” joins values, the source holds several entries; their conditions need not be identical. Identical values can stand only once. Inconclusive results and toxic doses are left out. Rule for the calls: active = survival T/C of 150% or more; inactive = T/C below 125% in these data. Non-standard residues stand in square brackets, D forms with d. Residues, ends and D or L forms follow the SMILES beside them. ξ: configuration not given here. ξPhe(4-N(CH2CH2Cl)2) = NC(Cc1ccc(N(CCCl)CCCl)cc1)C(=O)O

System: BDF1 mice, P388 leukemia ip, median survival T/C
Assay: NCI In Vivo Anticancer Drug Screen. Data for tumor model P388 Leukemia (intraperitoneal) in B6D2F1 (BDF1) mice
Conditions: endpoint: median survival time, higher = longer survival
How it was run: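 Vehicle-dosed animals serve as the reference; survival of compound-dosed, tumour-implanted mice is divided by it.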

[1] = dose: 50.0 mg/kg/injection, schedule: Q01DX009 (ip), vehicle: saline with Tween-80
[2] = dose: 100.0 mg/kg/injection, schedule: Q01DX009 (ip), vehicle: saline with Tween-80
[3] = dose: 200.0 mg/kg/injection, schedule: Q01DX009 (ip), vehicle: saline with Tween-80
[4] = dose: 100.0 mg/kg/injection, schedule: Q04DX003 (ip), vehicle: saline with Tween-80
[5] = dose: 200.0 mg/kg/injection, schedule: Q04DX003 (ip), vehicle: saline with Tween-80
[6] = dose: 400.0 mg/kg/injection, schedule: Q01DX009 (ip), vehicle: saline with Tween-80
[7] = dose: 400.0 mg/kg/injection, schedule: Q04DX003 (ip), vehicle: saline with Tween-80
[8] = dose: 12.5 mg/kg/injection, schedule: Q01DX009 (ip), vehicle: saline
[9] = dose: 25.0 mg/kg/injection, schedule: Q01DX009 (ip), vehicle: saline
[10] = dose: 50.0 mg/kg/injection, schedule: Q01DX009 (ip), vehicle: saline
[11] = dose: 100.0 mg/kg/injection, schedule: Q04DX003 (ip), vehicle: saline
[12] = dose: 200.0 mg/kg/injection, schedule: Q04DX003 (ip), vehicle: saline
[13] = dose: 400.0 mg/kg/injection, schedule: Q04DX003 (ip), vehicle: saline
[14] = dose: 100.0 mg/kg/injection, schedule: Q01DX009 (ip), vehicle: saline
[15] = dose: 100.0 mg/kg/injection, schedule: Q01DX009 (ip), vehicle: Klucel (hydroxypropylcellulose) (HPC)

Measured: T/C

CCC(C)C(=O)/C=C/c1ccccc1 (stereo not given)
inactive: [1] 96 % of control | [2] 107 % of control | [3] 114 % of control

COc1ccc2c(c1)C(=O)CC=C(C(=O)O)N2
inactive: [2] 112 % of control | [4] 100 % of control | [3] 112 % of control | [5] 115 % of control | [6] 116 % of control | [7] 115 % of control

NC(=O)CC[n+]1ccccc1
inactive: [8] 94 % of control | [9] 100 % of control | [10] 99 % of control

O=C(O)CCC(=O)CCl
inactive: dose: 12.0 mg/kg/injection, schedule: Q01DX009 (ip), vehicle: saline 120 % of control

CCOC(=O)N1C=Cn2c(cnc2C)C1OCC (stereo not given)
inactive: [11] 102 % of control | [12] 112 % of control | [13] 116 % of control

CC1CCCC/C1=N/NC(=O)c1ccccc1 (stereo not given)
inactive: [1] 87 % of control | [2] 91 % of control | [4] 95 % of control

O=C(N=Nc1c(O)[nH]c2c(Cl)cc(Cl)cc12)c1ccccc1O
inactive: [1] 90 % of control | [2] 87 % of control | [3] 96 % of control

COc1cc(/C=N\O)nc(-c2ccccn2)c1
inactive: [8] 120 % of control | [9] 96 % of control and 120 % of control | [10] 111 % of control and 123 % of control | [14] 114 % of control

O=C1c2ccccc2C(=O)C(Cl)C1Cl (stereo not given)
inactive: dose: 1.56 mg/kg/injection, schedule: Q01DX009 (ip), vehicle: saline with Tween-80 117 % of control | dose: 3.13 mg/kg/injection, schedule: Q01DX009 (ip), vehicle: saline with Tween-80 103 % of control | dose: 6.25 mg/kg/injection, schedule: Q01DX009 (ip), vehicle: saline with Tween-80 101 % of control

CCCCCC(C)(C1=NC(C)(C)CC(C)O1)c1ccccc1 (stereo not given)
inactive: dose: 12.5 mg/kg/injection, schedule: Q01DX001 (ip), vehicle: saline sonified 100 % of control | dose: 25.0 mg/kg/injection, schedule: Q01DX001 (ip), vehicle: saline sonified 100 % of control | dose: 50.0 mg/kg/injection, schedule: Q01DX001 (ip), vehicle: saline sonified 100 % of control

OC(Cc1cccnc1)(c1ccccc1)c1ccc(Cl)cc1 (stereo not given)
inactive: [1] 105 % of control | [2] 100 % of control | [3] 96 % of control

Nc1cc(N)c([N+](=O)[O-])cc1[N+](=O)[O-]
inactive: [2] 90 % of control | [3] 100 % of control | [6] 104 % of control

NNC(=O)OC12CC3CC(CC(C3)C1)C2
inactive: dose: 12.5 mg/kg/injection, schedule: Q04DX003 (ip), vehicle: Klucel (hydroxypropylcellulose) (HPC) 105 % of control | dose: 25.0 mg/kg/injection, schedule: Q04DX003 (ip), vehicle: Klucel (hydroxypropylcellulose) (HPC) 105 % of control | dose: 50.0 mg/kg/injection, schedule: Q04DX003 (ip), vehicle: Klucel (hydroxypropylcellulose) (HPC) 120 % of control | dose: 63.75 mg/kg/injection, schedule: Q01DX001 (ip), vehicle: Klucel (hydroxypropylcellulose) (HPC) 100 % of control | dose: 127.5 mg/kg/injection, schedule: Q01DX001 (ip), vehicle: Klucel (hydroxypropylcellulose) (HPC) 122 % of control | dose: 255.0 mg/kg/injection, schedule: Q04DX003 (ip), vehicle: Klucel (hydroxypropylcellulose) (HPC) 90 % of control

C=C1C(=O)O[C@H]2[C@H]1[C@H](OC(=O)/C(C)=C\C)CC(=C)[C@@H]1[C@H](O)[C@H]3O[C@@]3(C)[C@@]12O
inactive: dose: 5.0 mg/kg/injection, schedule: Q01DX010 (ip), vehicle: carboxymethylcellulose (CMC) 104 % of control | dose: 10.0 mg/kg/injection, schedule: Q01DX010 (ip), vehicle: carboxymethylcellulose (CMC) 104 % of control | dose: 20.0 mg/kg/injection, schedule: Q01DX010 (ip), vehicle: carboxymethylcellulose (CMC) 113 % of control

CC(=O)Nc1ccc(OCCOC(=O)Nc2c(Cl)cccc2Cl)cc1
inactive: dose: 25.0 mg/kg/injection, schedule: Q01DX009 (ip), vehicle: Klucel (hydroxypropylcellulose) (HPC) 111 % of control | dose: 50.0 mg/kg/injection, schedule: Q01DX009 (ip), vehicle: Klucel (hydroxypropylcellulose) (HPC) 100 % of control | [15] 100 % of control

CC(=O)Nc1onc(C)c1[N+](=O)[O-]
inactive: [14] 100 % of control | [11] 104 % of control | dose: 200.0 mg/kg/injection, schedule: Q01DX009 (ip), vehicle: saline 100 % of control | [12] 109 % of control | dose: 400.0 mg/kg/injection, schedule: Q01DX009 (ip), vehicle: saline 104 % of control | [13] 109 % of control

Cc1ccc([N+](=O)[O-])cc1NC(=O)Nc1ccc(S(N)(=O)=O)cc1
inactive: [15] 100 % of control | dose: 200.0 mg/kg/injection, schedule: Q01DX009 (ip), vehicle: Klucel (hydroxypropylcellulose) (HPC) 100 % of control | dose: 400.0 mg/kg/injection, schedule: Q01DX009 (ip), vehicle: Klucel (hydroxypropylcellulose) (HPC) 100 % of control

O=C1C(Cl)=C(Sc2nc3ccccc3s2)C(=O)c2ccccc21
inactive: dose: 50.0 mg/kg/injection, schedule: Q01DX005 (ip), vehicle: saline with Tween-80 112 % of control

Cc1ccc(C(=O)/C=C\c2ccccc2)cc1
inactive: [2] 104 % of control | [4] 103 % of control | [3] 104 % of control | [5] 103 % of control | [6] 104 % of control | [7] 103 % of control

CN(C)CC/C=C1\c2ccccc2Sc2ccc(Cl)cc21
inactive: dose: 3.75 mg/kg/injection, schedule: Q01DX001 (ip), vehicle: Klucel (hydroxypropylcellulose) (HPC) 112 % of control | dose: 7.5 mg/kg/injection, schedule: Q01DX001 (ip), vehicle: Klucel (hydroxypropylcellulose) (HPC) 110 % of control | dose: 15.0 mg/kg/injection, schedule: Q01DX001 (ip), vehicle: Klucel (hydroxypropylcellulose) (HPC) 112 % of control | dose: 30.0 mg/kg/injection, schedule: Q01DX001 (ip), vehicle: Klucel (hydroxypropylcellulose) (HPC) 103 % of control | dose: 60.0 mg/kg/injection, schedule: Q01DX001 (ip), vehicle: Klucel (hydroxypropylcellulose) (HPC) 114 % of control | dose: 120.0 mg/kg/injection, schedule: Q01DX001 (ip), vehicle: Klucel (hydroxypropylcellulose) (HPC) 118 % of control

CCCCN1CCC2(CC1)COCc1ccccc12
inactive: dose: 12.5 mg/kg/injection, schedule: Q04DX003 (ip), vehicle: saline with Tween-80 104 % of control | dose: 25.0 mg/kg/injection, schedule: Q04DX003 (ip), vehicle: saline with Tween-80 98 % of control | dose: 50.0 mg/kg/injection, schedule: Q04DX003 (ip), vehicle: saline with Tween-80 95 % of control

NC(CO)C(=O)NC(CCC(=O)O)C(=O)NC(CO)C(=O)NC(CCC(=O)O)C(=O)NC(Cc1ccc(N(CCCl)CCCl)cc1)C(=O)O (stereo not given) (H-SESE[ξPhe(4-N(CH2CH2Cl)2)]-OH; configuration not given here)
inactive: dose: 5.0 mg/kg/injection, schedule: Q04DX003 (ip), vehicle: water 100 % of control | dose: 10.0 mg/kg/injection, schedule: Q04DX003 (ip), vehicle: water 98 % of control | dose: 20.0 mg/kg/injection, schedule: Q04DX003 (ip), vehicle: water 97 % of control | dose: 40.0 mg/kg/injection, schedule: Q04DX003 (ip), vehicle: water 100 % of control

CCOc1nc(S(=O)(=O)CC)ncc1C
inactive: dose: 25.0 mg/kg/injection, schedule: Q01DX009 (ip), vehicle: saline with Tween-80 92 % of control | dose: 75.0 mg/kg/injection, schedule: Q01DX009 (ip), vehicle: saline with Tween-80 90 % of control | [4] 105 % of control | dose: 150.0 mg/kg/injection, schedule: Q01DX009 (ip), vehicle: saline with Tween-80 106 % of control | [5] 96 % of control | [7] 96 % of control
